# Assay results taken from ChEMBL document CHEMBL3817731, “Synthesis and investigation of novel benzimidazole derivatives as antifungal agents” (Bioorg Med Chem, 2016).
# System: Candida albicans
# Assay: Antifungal activity against Candida albicans ATCC MYA-2876 after 48 hrs by CLSI M27-A3 method
# Assay type: functional
# Conditions: ATCC MYA-2876, 48 h
row,Compound,MIC
1,CCCN1CCN(c2ccc3nc(-c4ccc5nc(-c6ccc(O)cc6)[nH]c5c4)[nH]c3c2)CC1,31.2 µg/mL
2,CC[C@@H]([C@H](C)O)n1ncn(-c2ccc(N3CCN(c4ccc(OC[C@@H]5CO[C@@](Cn6cncn6)(c6ccc(F)cc6F)C5)cc4)CC3)cc2)c1=O [POSACONAZOLE],7.8 µg/mL
3,CCC(C)n1ncn(-c2ccc(N3CCN(c4ccc(OCC5COC(Cn6cncn6)(c6ccc(Cl)cc6Cl)O5)cc4)CC3)cc2)c1=O (stereo unspecified) [ITRACONAZOLE],7.8 µg/mL
4,C#CCOc1ccc(-c2nc3ccc(N4CCN(C)CC4)cc3[nH]2)cc1,> 31.2 µg/mL

# System: Candida albicans
# Assay: Antifungal activity against Candida albicans ATCC MYA-1237 after 48 hrs by CLSI M27-A3 method
# Assay type: functional
# Conditions: ATCC MYA-1237, 48 h
row,Compound,MIC
1,CCCN1CCN(c2ccc3nc(-c4ccc5nc(-c6ccc(O)cc6)[nH]c5c4)[nH]c3c2)CC1,31.2 µg/mL
2,CC[C@@H]([C@H](C)O)n1ncn(-c2ccc(N3CCN(c4ccc(OC[C@@H]5CO[C@@](Cn6cncn6)(c6ccc(F)cc6F)C5)cc4)CC3)cc2)c1=O [POSACONAZOLE],15.6 µg/mL
3,CCC(C)n1ncn(-c2ccc(N3CCN(c4ccc(OCC5COC(Cn6cncn6)(c6ccc(Cl)cc6Cl)O5)cc4)CC3)cc2)c1=O (stereo unspecified) [ITRACONAZOLE],31.2 µg/mL
4,C#CCOc1ccc(-c2nc3ccc(N4CCN(C)CC4)cc3[nH]2)cc1,> 31.2 µg/mL

# System: Candida parapsilosis
# Assay: Antifungal activity against Candida parapsilosis ATCC 22019 after 48 hrs by CLSI M27-A3 method
# Assay type: functional
# Conditions: Lodderomyces parapsilosis, ATCC 22019, 48 h
row,Compound,MIC
1,CCCN1CCN(c2ccc3nc(-c4ccc5nc(-c6ccc(O)cc6)[nH]c5c4)[nH]c3c2)CC1,7.8 µg/mL
2,CC[C@@H]([C@H](C)O)n1ncn(-c2ccc(N3CCN(c4ccc(OC[C@@H]5CO[C@@](Cn6cncn6)(c6ccc(F)cc6F)C5)cc4)CC3)cc2)c1=O [POSACONAZOLE],< 0.03 µg/mL
3,CCC(C)n1ncn(-c2ccc(N3CCN(c4ccc(OCC5COC(Cn6cncn6)(c6ccc(Cl)cc6Cl)O5)cc4)CC3)cc2)c1=O (stereo unspecified) [ITRACONAZOLE],0.12 µg/mL
4,C#CCOc1ccc(-c2nc3ccc(N4CCN(C)CC4)cc3[nH]2)cc1,> 31.2 µg/mL

# System: Candida albicans
# Assay: Antifungal activity against Candida albicans ATCC MYA-90819 after 48 hrs by CLSI M27-A3 method
# Assay type: functional
# Conditions: ATCC MYA-90819, 48 h
row,Compound,MIC
1,CCCN1CCN(c2ccc3nc(-c4ccc5nc(-c6ccc(O)cc6)[nH]c5c4)[nH]c3c2)CC1,31.2 µg/mL
2,CC[C@@H]([C@H](C)O)n1ncn(-c2ccc(N3CCN(c4ccc(OC[C@@H]5CO[C@@](Cn6cncn6)(c6ccc(F)cc6F)C5)cc4)CC3)cc2)c1=O [POSACONAZOLE],31.2 µg/mL
3,CCC(C)n1ncn(-c2ccc(N3CCN(c4ccc(OCC5COC(Cn6cncn6)(c6ccc(Cl)cc6Cl)O5)cc4)CC3)cc2)c1=O (stereo unspecified) [ITRACONAZOLE],31.2 µg/mL
4,C#CCOc1ccc(-c2nc3ccc(N4CCN(C)CC4)cc3[nH]2)cc1,> 31.2 µg/mL

# System: Aspergillus terreus
# Assay: Antifungal activity against Aspergillus terreus ATCC MYA3633 after 48 hrs by CLSI M38-A2 method
# Assay type: functional
# Conditions: ATCC MYA3633, 48 h
row,Compound,MIC
1,CCCN1CCN(c2ccc3nc(-c4ccc5nc(-c6ccc(O)cc6)[nH]c5c4)[nH]c3c2)CC1,15.6 µg/mL
2,CC[C@@H]([C@H](C)O)n1ncn(-c2ccc(N3CCN(c4ccc(OC[C@@H]5CO[C@@](Cn6cncn6)(c6ccc(F)cc6F)C5)cc4)CC3)cc2)c1=O [POSACONAZOLE],0.48 µg/mL
3,CCC(C)n1ncn(-c2ccc(N3CCN(c4ccc(OCC5COC(Cn6cncn6)(c6ccc(Cl)cc6Cl)O5)cc4)CC3)cc2)c1=O (stereo unspecified) [ITRACONAZOLE],0.975 µg/mL
4,C#CCOc1ccc(-c2nc3ccc(N4CCN(C)CC4)cc3[nH]2)cc1,> 31.2 µg/mL

# System: Aspergillus nidulans
# Assay: Antifungal activity against Aspergillus nidulans ATCC 38163 after 48 hrs by CLSI M38-A2 method
# Assay type: functional
# Conditions: ATCC 38163, 48 h
row,Compound,MIC
1,CCCN1CCN(c2ccc3nc(-c4ccc5nc(-c6ccc(O)cc6)[nH]c5c4)[nH]c3c2)CC1,7.8 µg/mL
2,CC[C@@H]([C@H](C)O)n1ncn(-c2ccc(N3CCN(c4ccc(OC[C@@H]5CO[C@@](Cn6cncn6)(c6ccc(F)cc6F)C5)cc4)CC3)cc2)c1=O [POSACONAZOLE],0.195 µg/mL
3,CCC(C)n1ncn(-c2ccc(N3CCN(c4ccc(OCC5COC(Cn6cncn6)(c6ccc(Cl)cc6Cl)O5)cc4)CC3)cc2)c1=O (stereo unspecified) [ITRACONAZOLE],0.195 µg/mL
4,C#CCOc1ccc(-c2nc3ccc(N4CCN(C)CC4)cc3[nH]2)cc1,> 31.2 µg/mL

# System: Candida albicans
# Assay: Antifungal activity against Candida albicans ATCC 10231 after 48 hrs by CLSI M27-A3 method
# Assay type: functional
# Conditions: ATCC 10231, 48 h
row,Compound,MIC
1,CCCN1CCN(c2ccc3nc(-c4ccc5nc(-c6ccc(O)cc6)[nH]c5c4)[nH]c3c2)CC1,31.2 µg/mL
2,CC[C@@H]([C@H](C)O)n1ncn(-c2ccc(N3CCN(c4ccc(OC[C@@H]5CO[C@@](Cn6cncn6)(c6ccc(F)cc6F)C5)cc4)CC3)cc2)c1=O [POSACONAZOLE],0.5 µg/mL
3,CCC(C)n1ncn(-c2ccc(N3CCN(c4ccc(OCC5COC(Cn6cncn6)(c6ccc(Cl)cc6Cl)O5)cc4)CC3)cc2)c1=O (stereo unspecified) [ITRACONAZOLE],0.5 µg/mL
4,C#CCOc1ccc(-c2nc3ccc(N4CCN(C)CC4)cc3[nH]2)cc1,> 31.2 µg/mL

# System: Candida albicans
# Assay: Antifungal activity against Candida albicans ATCC 64124 after 48 hrs by CLSI M27-A3 method
# Assay type: functional
# Conditions: ATCC 64124, 48 h
row,Compound,MIC
1,CCCN1CCN(c2ccc3nc(-c4ccc5nc(-c6ccc(O)cc6)[nH]c5c4)[nH]c3c2)CC1,31.2 µg/mL
2,CC[C@@H]([C@H](C)O)n1ncn(-c2ccc(N3CCN(c4ccc(OC[C@@H]5CO[C@@](Cn6cncn6)(c6ccc(F)cc6F)C5)cc4)CC3)cc2)c1=O [POSACONAZOLE],> 62.5 µg/mL
3,CCC(C)n1ncn(-c2ccc(N3CCN(c4ccc(OCC5COC(Cn6cncn6)(c6ccc(Cl)cc6Cl)O5)cc4)CC3)cc2)c1=O (stereo unspecified) [ITRACONAZOLE],> 62.5 µg/mL
4,C#CCOc1ccc(-c2nc3ccc(N4CCN(C)CC4)cc3[nH]2)cc1,> 31.2 µg/mL

# System: Pichia kudriavzevii
# Assay: Antifungal activity against Candida krusei ATCC 6258 after 48 hrs by CLSI M27-A3 method
# Assay type: functional
# Conditions: ATCC 6258, 48 h
row,Compound,MIC
1,CCCN1CCN(c2ccc3nc(-c4ccc5nc(-c6ccc(O)cc6)[nH]c5c4)[nH]c3c2)CC1,31.2 µg/mL
2,CC[C@@H]([C@H](C)O)n1ncn(-c2ccc(N3CCN(c4ccc(OC[C@@H]5CO[C@@](Cn6cncn6)(c6ccc(F)cc6F)C5)cc4)CC3)cc2)c1=O [POSACONAZOLE],0.06 µg/mL
3,CCC(C)n1ncn(-c2ccc(N3CCN(c4ccc(OCC5COC(Cn6cncn6)(c6ccc(Cl)cc6Cl)O5)cc4)CC3)cc2)c1=O (stereo unspecified) [ITRACONAZOLE],0.48 µg/mL
4,C#CCOc1ccc(-c2nc3ccc(N4CCN(C)CC4)cc3[nH]2)cc1,> 31.2 µg/mL

# System: Nakaseomyces glabratus
# Assay: Antifungal activity against Candida glabrata ATCC 2001 after 48 hrs by CLSI M27-A3 method
# Assay type: functional
# Conditions: CBS 138, 48 h
row,MIC,Compound
1,7.8 µg/mL,CCCN1CCN(c2ccc3nc(-c4ccc5nc(-c6ccc(O)cc6)[nH]c5c4)[nH]c3c2)CC1
2,> 31.2 µg/mL,C#CCOc1ccc(-c2nc3ccc(N4CCN(C)CC4)cc3[nH]2)cc1

row,Compound,MIC
1,CC[C@@H]([C@H](C)O)n1ncn(-c2ccc(N3CCN(c4ccc(OC[C@@H]5CO[C@@](Cn6cncn6)(c6ccc(F)cc6F)C5)cc4)CC3)cc2)c1=O [POSACONAZOLE],0.12 µg/mL

# System: Aspergillus flavus
# Assay: Antifungal activity against Aspergillus flavus ATCC MYA-3631 after 48 hrs by CLSI M38-A2 method
# Assay type: functional
# Conditions: ATCC MYA-3631, 48 h
row,Compound,MIC
1,CCCN1CCN(c2ccc3nc(-c4ccc5nc(-c6ccc(O)cc6)[nH]c5c4)[nH]c3c2)CC1,> 31.2 µg/mL
2,CC[C@@H]([C@H](C)O)n1ncn(-c2ccc(N3CCN(c4ccc(OC[C@@H]5CO[C@@](Cn6cncn6)(c6ccc(F)cc6F)C5)cc4)CC3)cc2)c1=O [POSACONAZOLE],0.24 µg/mL
3,CCC(C)n1ncn(-c2ccc(N3CCN(c4ccc(OCC5COC(Cn6cncn6)(c6ccc(Cl)cc6Cl)O5)cc4)CC3)cc2)c1=O (stereo unspecified) [ITRACONAZOLE],0.48 µg/mL
4,C#CCOc1ccc(-c2nc3ccc(N4CCN(C)CC4)cc3[nH]2)cc1,> 31.2 µg/mL

# System: Candida albicans
# Assay: Antifungal activity against Candida albicans ATCC MYA-2310 after 48 hrs by CLSI M27-A3 method
# Assay type: functional
# Conditions: ATCC MYA-2310, 48 h
row,Compound,MIC
1,CCCN1CCN(c2ccc3nc(-c4ccc5nc(-c6ccc(O)cc6)[nH]c5c4)[nH]c3c2)CC1,31.2 µg/mL
2,CC[C@@H]([C@H](C)O)n1ncn(-c2ccc(N3CCN(c4ccc(OC[C@@H]5CO[C@@](Cn6cncn6)(c6ccc(F)cc6F)C5)cc4)CC3)cc2)c1=O [POSACONAZOLE],31.2 µg/mL
3,CCC(C)n1ncn(-c2ccc(N3CCN(c4ccc(OCC5COC(Cn6cncn6)(c6ccc(Cl)cc6Cl)O5)cc4)CC3)cc2)c1=O (stereo unspecified) [ITRACONAZOLE],31.2 µg/mL
4,C#CCOc1ccc(-c2nc3ccc(N4CCN(C)CC4)cc3[nH]2)cc1,> 31.2 µg/mL

# System: Candida albicans
# Assay: Antifungal activity against Candida albicans ATCC MYA-1003 after 48 hrs by CLSI M27-A3 method
# Assay type: functional
# Conditions: ATCC MYA-1003, 48 h
row,Compound,MIC
1,CCCN1CCN(c2ccc3nc(-c4ccc5nc(-c6ccc(O)cc6)[nH]c5c4)[nH]c3c2)CC1,31.2 µg/mL
2,CC[C@@H]([C@H](C)O)n1ncn(-c2ccc(N3CCN(c4ccc(OC[C@@H]5CO[C@@](Cn6cncn6)(c6ccc(F)cc6F)C5)cc4)CC3)cc2)c1=O [POSACONAZOLE],15.6 µg/mL
3,CCC(C)n1ncn(-c2ccc(N3CCN(c4ccc(OCC5COC(Cn6cncn6)(c6ccc(Cl)cc6Cl)O5)cc4)CC3)cc2)c1=O (stereo unspecified) [ITRACONAZOLE],31.2 µg/mL
4,C#CCOc1ccc(-c2nc3ccc(N4CCN(C)CC4)cc3[nH]2)cc1,> 31.2 µg/mL
